These results are taken from ChEMBL document CHEMBL1201862, “PubChem BioAssay data set” (2004).

Where a name gives a salt, the structure may show the parent alone.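 Each compound was tested at five concentrations against cells in 96-well plates for 48 hours. GI50 marks 50% less growth.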 Activity calls are given as the source filed them. No stated cut-off is given here; in the data, active = GI50 up to about 1.1 µM and inactive = higher.

What all share (assay): inhibition of tumour cell growth, NCI panel, 48 h
In experiment [1] the test system is 786-0.
Experiment [2] deals with ACHN.
Experiment [3] concerns CAKI-1.
The subject of experiment [4] is HOP-92.
Experiment [5] relates to IGROV-1.
The subject of experiment [6] is MDA-N.
Experiment [7] concerns NCI-H226.
For experiment [8], the system named is NCI-H23.
Experiment [9] concerns OVCAR-4.
The test system of experiment [10] is OVCAR-5.
The subject of experiment [11] is PC-3.
For experiment [12], the system named is RPMI-8226.
The subject of experiment [13] is RXF 393.
The subject of experiment [14] is SF-295.
The test system of experiment [15] is SK-MEL-2.
Experiment [16] has as its system SN12C.
The subject of experiment [17] is KM12.
Experiment [18] concerns TK-10.
For experiment [19], the system named is MDA-MB-231.

Consider `O=C(/C=C/c1ccccc1)NNC(=O)c1c(Cl)c(Cl)c(Cl)c(Cl)c1-c1nc2ccccc2[nH]1`, for which the GI50 was 4.5 µM (inactive) in [1]; 32.5 µM (inactive) in experiment [2]; 33.3 µM (inactive) in experiment [3]; 18.7 µM (inactive) in [4]; 6.49 µM (inactive) in [5]; 11.3 µM (inactive) in [6]. Further, the GI50 in experiment [7] was 13.9 µM (inactive); in [8], 23.2 µM (inactive); in experiment [9], 49.4 µM (inactive); in [10] it was 25 µM (inactive); in experiment [11], 32.5 µM (inactive); in experiment [12], 26.9 µM (inactive). Moreover, the GI50 in experiment [13] is 18.8 µM (inactive); in experiment [14] it was 0.0472 µM (active); in experiment [15], 39.4 µM (inactive); in experiment [16] it was 21.6 µM (inactive).
As for `OC1(c2ccccc2)CCCCCCCCC(O)(c2ccccc2)CCCCCCCC1` (stereo not drawn), the GI50 in experiment [1], in experiment [2], in experiment [3], in [4], in experiment [5] and in experiment [17] was > 100 µM (inactive) each time. Also, the GI50 in [6], in experiment [8], in [9], in experiment [10], in experiment [11] and in experiment [13] was > 100 µM (inactive) in each case. The GI50 in [14], in [15], in experiment [16] and in [18] was > 100 µM (inactive) each time.
Turning to `CC1(C)CC(=O)C(=CNc2nc(-c3ccccc3)cs2)C(=O)C1`, the GI50 was > 100 µM (inactive) in [1]; 40.5 µM (inactive) in experiment [2]; 71 µM (inactive) in experiment [4]; 26.6 µM (inactive) in experiment [5]; 32.1 µM (inactive) in experiment [17]; 34.8 µM (inactive) in experiment [19]. Further, the GI50 was 30.1 µM (inactive) in experiment [6]; 29 µM (inactive) in [7]; 32.4 µM (inactive) in experiment [8]; 69.5 µM (inactive) in experiment [9]; > 100 µM (inactive) in [10]; 38.6 µM (inactive) in experiment [11]. Moreover, the GI50 in experiment [14] was 57.9 µM (inactive); in experiment [15] it was 34.7 µM (inactive); in experiment [16], 39.2 µM (inactive); in experiment [18], 24 µM (inactive).
For the compound `COCCOCN(C(=O)C1=CCC2(CC1)OCCO2)c1ccccc1I`, the GI50 in experiment [1], in [2], in experiment [3], in experiment [4], in experiment [17] and in [19] was > 50 µM (inactive) each time. In addition, the GI50 in experiment [6], in [7], in experiment [8], in [9], in experiment [10] and in experiment [11] was > 50 µM (inactive) throughout. The GI50 in experiment [12], in experiment [14], in experiment [15], in experiment [16] and in experiment [18] was > 50 µM (inactive) in each case.
Regarding `COc1cc2nc(-c3cccs3)oc(=O)c2cc1OC`, the GI50 is 94 µM (inactive) in experiment [1]; > 100 µM (inactive) in experiment [2]; > 100 µM (inactive) in experiment [3]; > 100 µM (inactive) in [4]; > 100 µM (inactive) in experiment [5]; > 100 µM (inactive) in experiment [17]. The GI50 is 74.8 µM (inactive) in [19]; 50.7 µM (inactive) in experiment [7]; 97.9 µM (inactive) in experiment [8]; > 100 µM (inactive) in [9]; > 100 µM (inactive) in experiment [10]; > 100 µM (inactive) in [11]. The GI50 in experiment [12], in experiment [13], in experiment [14], in experiment [15], in experiment [16] and in experiment [18] was > 100 µM (inactive) in each case.
Consider `CON(C)C(=O)C(Cc1ccccc1)NC(=O)OC(C)(C)C` (stereo not drawn), for which the GI50 in [1], in experiment [2], in experiment [4], in [5], in [17] and in experiment [6] was > 100 µM (inactive) in each case. The GI50 in [7], in [8], in experiment [10], in experiment [11], in [12] and in experiment [13] was > 100 µM (inactive) throughout. Further, the GI50 in experiment [14], in experiment [16] and in [18] was > 100 µM (inactive) each time.
As for `CCCCCCc1cc2cc(-c3csc(-c4ccc(OC)cc4)n3)c(=O)oc2cc1O`, the GI50 in [1] was 5.28 µM (inactive); in experiment [2], 10.9 µM (inactive); in experiment [3] it was 6.73 µM (inactive); in [4], 3.57 µM (inactive); in [5] it was 5.45 µM (inactive); in experiment [17], 24.8 µM (inactive). For the same compound, the GI50 in experiment [19] is 11 µM (inactive); in experiment [7], 14 µM (inactive); in [9] it was 2.48 µM (inactive); in [10], 26.7 µM (inactive); in [11] it was 18.9 µM (inactive); in experiment [12] it was 33.8 µM (inactive). Besides, the GI50 in experiment [13] is 13.1 µM (inactive); in experiment [14], 13.9 µM (inactive); in [15] it was 15.8 µM (inactive); in experiment [16] it was 10.4 µM (inactive); in experiment [18], 14 µM (inactive).
As to `COc1ccc(N(c2ccc(C#N)cc2)c2ccc(C#N)cc2)cc1`, the GI50 in [1] was > 100 µM (inactive); in [2], > 100 µM (inactive); in experiment [3] it was > 100 µM (inactive); in [4] it was > 100 µM (inactive); in experiment [5], 23.7 µM (inactive); in experiment [17], 8.43 µM (inactive). Moreover, the GI50 was > 100 µM (inactive) in experiment [19]; > 100 µM (inactive) in experiment [6]; > 100 µM (inactive) in experiment [7]; 29.4 µM (inactive) in experiment [8]; > 100 µM (inactive) in experiment [9]; > 100 µM (inactive) in experiment [10]. Moreover, the GI50 in experiment [11], in [14], in experiment [15], in [16] and in experiment [18] was > 100 µM (inactive) throughout.
For `N=C(N)N/N=C\c1c(-c2cccc([N+](=O)[O-])c2)nc2sc(Cl)cn12`, the GI50 in experiment [1] is 3.27 µM (inactive); in [2] it was 29.2 µM (inactive); in [3] it was 2.33 µM (inactive); in [4], 3.16 µM (inactive); in experiment [5] it was 1.8 µM (inactive); in experiment [17], 2.32 µM (inactive). Moreover, the GI50 is 2.74 µM (inactive) in experiment [19]; 53.2 µM (inactive) in experiment [7]; 2.75 µM (inactive) in [8]; 1.54 µM (inactive) in experiment [9]; 3.91 µM (inactive) in [10]; 2.13 µM (inactive) in [11]. Further, the GI50 was 2.22 µM (inactive) in experiment [12]; 2.19 µM (inactive) in [13]; 2.31 µM (inactive) in [14]; 1.96 µM (inactive) in experiment [15]; 2.6 µM (inactive) in experiment [16]; 2.38 µM (inactive) in [18].
Turning to `CC(CN1c2ccccc2Sc2ccccc21)N(C)C` (stereo not drawn) [PROMETHAZINE HYDROCHLORIDE], the GI50 in experiment [1] was 14.8 µM (inactive); in experiment [2], 17 µM (inactive); in [3], 18.5 µM (inactive); in experiment [4], 17.1 µM (inactive); in experiment [5], 20.1 µM (inactive); in [17], 20.8 µM (inactive). The GI50 was 17.9 µM (inactive) in experiment [19]; 19.1 µM (inactive) in experiment [7]; 21.8 µM (inactive) in experiment [8]; 16.4 µM (inactive) in experiment [9]; 18.2 µM (inactive) in experiment [10]; 15.8 µM (inactive) in experiment [11]. For the same compound, the GI50 is 20.8 µM (inactive) in experiment [13], 15.4 µM (inactive) in experiment [14], 18 µM (inactive) in experiment [15] and 15.3 µM (inactive) in experiment [16].
`O=C(O)Cc1ccc(Nc2nc3ccccc3nc2C(=O)O)cc1`: the GI50 in experiment [1], in experiment [2], in experiment [3], in experiment [4], in [5] and in experiment [17] was > 100 µM (inactive) each time. For the same compound, the GI50 in experiment [6], in experiment [7], in experiment [8], in [9], in [10] and in [11] was > 100 µM (inactive) throughout. Moreover, the GI50 in experiment [13], in [14], in [15], in [16] and in experiment [18] was > 100 µM (inactive) throughout.
Take `O=C(N/C(=C/c1ccc(Cl)cc1)c1nc2ccccc2c(=O)n1Nc1ccc([N+](=O)[O-])cc1[N+](=O)[O-])c1ccccc1`: the GI50 in [1], in experiment [3], in [4], in experiment [5], in [17] and in experiment [19] was > 100 µM (inactive) each time. In addition, the GI50 in [6], in experiment [7], in [8], in experiment [9], in [10] and in [11] was > 100 µM (inactive) in each case. Further, the GI50 in [14], in experiment [16] and in [18] was > 100 µM (inactive) each time.
